Key:
[1] = deposition in drilled holes; NaF 0.25%, theobromine 200 mg/L
Description: (§1) Isolated human teeth were scratched with a diamond scribe on the enamel surface. Each tooth was then etched for 15 seconds in 0.1 M HCl, rinsed with distilled water, then exposed for 15 seconds to a 0.1 M oxalic acid solution, and then rinsed once more with distilled water. […] The pH was adjusted to 7.4-7.6, after which a 0.2 M CaCl2 solution was added with stirring (the solution turns immediately turbid from Ca-phosphate precipitation). The pH was checked and adjusted immediately to between 7.4 and 7.6, as required. […] A volume ratio of about 3:5 Na2HPO4 solution-to-CaCl2 solution was used to avoid any excess of either Ca or P. The teeth were so incubated at room temperature for about 90 minutes, after which they were removed from solution, carefully rinsed several times with distilled water, and then dried in a desiccator for 24 hours. After drying, the teeth were carbon-coated for viewing via scanning electron microscopy (SEM).
Using a dental drill, holes were drilled into the enamel surfaces of isolated human teeth, with each tooth receiving three holes in three separate locations. […] The teeth were visualized via SEM, as in EXAMPLE 4, and the amount of calcium phosphate deposition measured for each experimental condition.

[2] = Scratched human teeth, SEM comparison of theobromine and NaF; conditions: 90 minutes incubation; NaF 0.25%, theobromine 200 mg/L
Description: as §1

[F-].[Na+] [NaF, sodium fluoride]
Calcium Phosphate (μm) ± S.D. [1]: 70 ± 8.8 μm
appearance of diamond-scribe scratch in SEM [2]: partly-filled
